Laboratory results published in ChEMBL document CHEMBL5512659, “Structure optimizing of flavonoids against both MRSA and VRE” (Eur J Med Chem, 2024).
Activity calls are given as the source filed them. The rule behind the calls is not given here.

Assays:
Staphylococcus aureus [1] = assay: Antibacterial activity against methicillin resistant Staphylococcus aureus clinical isolate 003 in presence of 140 mM/L Na+ (reference value: 0.5 ug/ml); type: functional
Staphylococcus aureus [2] = assay: Antibacterial activity against methicillin resistant Staphylococcus aureus clinical isolate 003 in presence of 2.5 mM/L Ca2+ (reference value: 0.5 ug/ml); type: functional
Staphylococcus aureus [3] = assay: Antibacterial activity against methicillin resistant Staphylococcus aureus clinical isolate 003 in presence of 1 mM/L Mg2+ (reference value: 0.5 ug/ml); type: functional
Staphylococcus aureus [4] = assay: Antibacterial activity against methicillin resistant Staphylococcus aureus clinical isolate 003 in presence of 4.5 mM/L K+ (reference value: 1 ug/ml); type: functional
Enterococcus faecalis [5] = assay: Antibacterial activity against multidrug resistant Enterococcus faecalis ATCC 51299 in presence of 4.5 mM/L K+ (reference value: 32 ug/ml); type: functional
Staphylococcus aureus [6] = assay: Antibacterial activity against methicillin resistant Staphylococcus aureus clinical isolate 003 in presence of 2.5 mM/L Ca2+ (reference value: 1 ug/ml); type: functional
Staphylococcus aureus [7] = assay: Antibacterial activity against methicillin resistant Staphylococcus aureus clinical isolate 003 in presence of 1 mM/L Mg2+ (reference value: 1 ug/ml); type: functional
Staphylococcus aureus [8] = assay: Antibacterial activity against methicillin resistant Staphylococcus aureus clinical isolate 003 in presence of 4.5 mM/L K+ (reference value: 0.25 ug/ml); type: functional
Staphylococcus aureus [9] = assay: Antibacterial activity against methicillin resistant Staphylococcus aureus clinical isolate 003 in presence of 2.5 mM/L Ca2+ (reference value: 0.25 ug/ml); type: functional
Staphylococcus aureus [10] = assay: Antibacterial activity against methicillin resistant Staphylococcus aureus clinical isolate 003 in presence of 1 mM/L Mg2+ (reference value: 0.25 ug/ml); type: functional
[11] = Cytotoxicity against HEK293T cells assessed as cell viability at 64 ug/ml measured after 48 hrs relative to control; type: toxicity, cell-based, HEK-293T; conditions: human, at 64 µg/mL, read-out: Activity
[12] = Toxicity in Galleria mellonella assessed as survival rate at 1.25 to 10 mg/kg observed after 7 days; type: organism-based; conditions: in vivo, dose 1.25-10 mg/kg, time 7 day
Staphylococcus aureus [13] = assay: Additive antibacterial activity against methicillin resistant Staphylococcus aureus clinical isolate 003 assessed as fractional inhibitory concentration in presence of vancomycin; type: functional
Staphylococcus aureus [14] = assay: Additive antibacterial activity against methicillin resistant Staphylococcus aureus clinical isolate 003 assessed as fractional inhibitory concentration in presence of chloramphenicol; type: functional
Staphylococcus aureus [15] = assay: Additive antibacterial activity against methicillin resistant Staphylococcus aureus clinical isolate 003 assessed as fractional inhibitory concentration in presence of azithromycin; type: functional
Staphylococcus aureus [16] = assay: Synergistic antibacterial activity against methicillin resistant Staphylococcus aureus clinical isolate 003 assessed as fractional inhibitory concentration in presence of tetracycline; type: functional
Staphylococcus aureus [17] = assay: Synergistic antibacterial activity against methicillin resistant Staphylococcus aureus clinical isolate 003 assessed as fractional inhibitory concentration in presence of norfloxacin; type: functional
Enterococcus faecalis [18] = assay: Additive antibacterial activity against multidrug resistant Enterococcus faecalis ATCC 51299 assessed as fractional inhibitory concentration in presence of lincomycin hydrochloride; type: functional
Enterococcus faecalis [19] = assay: Additive antibacterial activity against multidrug resistant Enterococcus faecalis ATCC 51299 assessed as fractional inhibitory concentration in presence of norfloxacin; type: functional
Enterococcus faecalis [20] = assay: Synergistic antibacterial activity against multidrug resistant Enterococcus faecalis ATCC 51299 assessed as fractional inhibitory concentration in presence of ampicillin; type: functional
Enterococcus faecalis [21] = assay: Synergistic antibacterial activity against multidrug resistant Enterococcus faecalis ATCC 51299 assessed as fractional inhibitory concentration in presence of azithromycin; type: functional
Staphylococcus aureus [22] = assay: Antibacterial activity against methicillin resistant Staphylococcus aureus clinical isolate 003 infected in cyclophosphamide immunosuppressed mouse model of skin wound infection assessed as reduction in bacterial load in wound at 2.5 mg/kg administered for 7 days and measured on day 8 (reference value: 1.6 x 10^8 CFU); type: functional; conditions: time 8 day
Enterococcus faecalis [23] = assay: Antibacterial activity against multidrug resistant Enterococcus faecalis ATCC 51299 infected in cyclophosphamide immunosuppressed mouse model of abdominal infection assessed as eradication of bacterial colonies in liver at 1.25 to 5 mg/kg measured after 60 hrs relative to control; type: functional; conditions: dose 1.25-5 mg/kg
Enterococcus faecalis [24] = assay: Antibacterial activity against multidrug resistant Enterococcus faecalis ATCC 51299 infected in cyclophosphamide immunosuppressed mouse model of abdominal infection assessed as eradication of bacterial colonies in spleen at 1.25 to 5 mg/kg measured after 60 hrs relative to control; type: functional; conditions: dose 1.25-5 mg/kg
Enterococcus faecalis [25] = assay: Antibacterial activity against multidrug resistant Enterococcus faecalis ATCC 51299 infected in cyclophosphamide immunosuppressed mouse model of abdominal infection assessed as eradication of bacterial colonies in kidney at 1.25 to 5 mg/kg measured after 60 hrs relative to control; type: functional; conditions: dose 1.25-5 mg/kg
Enterococcus faecalis [26] = assay: Antibacterial activity against multidrug resistant Enterococcus faecalis ATCC 51299 infected in cyclophosphamide immunosuppressed mouse model of abdominal infection assessed as reduction in abscess at 1.25 to 5 mg/kg measured after 60 hrs by H and E staining based analysis; type: functional, organism-based; conditions: dose 1.25-5 mg/kg
Enterococcus faecalis [27] = assay: Antibacterial activity against multidrug resistant Enterococcus faecalis ATCC 51299 infected in cyclophosphamide immunosuppressed mouse model of abdominal infection assessed as reduction in inflammatory infiltration at 1.25 to 5 mg/kg measured after 60 hrs by H and E staining based analysis; type: functional, organism-based; conditions: dose 1.25-5 mg/kg

CCCCCCc1c(-c2ccc(OCCCCN(C)C)cc2OCCCCN(C)C)oc2cc(OC)cc(O)c2c1=O
MIC (Staphylococcus aureus [1]): 1 µg/mL
MIC (Staphylococcus aureus [2]): 1 µg/mL
MIC (Staphylococcus aureus [3]): 0.5 µg/mL

CCCCCCc1c(-c2ccc(OCC(=O)CN[C@H](CCCNC(=N)N)C(=O)OC)cc2OCC(=O)CN[C@H](CCCNC(=N)N)C(=O)OC)oc2cc(OC)cc(O)c2c1=O
MIC (Staphylococcus aureus [4]): 2 µg/mL
MIC (Enterococcus faecalis [5]): 32 µg/mL
MIC (Staphylococcus aureus [6]): 1 µg/mL
MIC (Staphylococcus aureus [7]): 1 µg/mL

CCCCCCc1c(-c2ccc(OCCCCNCCCN)cc2OCCCCNCCCN)oc2cc(OC)cc(O)c2c1=O
MIC (Staphylococcus aureus [8]): 0.125 µg/mL
MIC (Staphylococcus aureus [9]): 0.25 µg/mL
MIC (Staphylococcus aureus [10]): 0.25 µg/mL
viability at 48 h, 64 ug/ml [11]: > 50%
survival at 168 h [12]: 100%
fractional inhibitory concentration index (FICI) (Staphylococcus aureus [13]): 1
fractional inhibitory concentration index (FICI) (Staphylococcus aureus [14]): 1
fractional inhibitory concentration index (FICI) (Staphylococcus aureus [15]): 0.75
fractional inhibitory concentration index (FICI) (Staphylococcus aureus [16]): 0.375
fractional inhibitory concentration index (FICI) (Staphylococcus aureus [17]): 0.5
fractional inhibitory concentration index (FICI) (Enterococcus faecalis [18]): 1
fractional inhibitory concentration index (FICI) (Enterococcus faecalis [19]): 1
fractional inhibitory concentration index (FICI) (Enterococcus faecalis [20]): 0.375
fractional inhibitory concentration index (FICI) (Enterococcus faecalis [21]): 0.313
Activity (Staphylococcus aureus [22]): 8 10^6CFU
Activity (Enterococcus faecalis [23]): 97%
Activity (Enterococcus faecalis [24]): 95.5%
Activity (Enterococcus faecalis [25]): 99.2%
Activity (Enterococcus faecalis [26]): Active
Activity (Enterococcus faecalis [27]): Active
